Structures can show the parent of a compound that is named as a salt. Where two headings read alike, the source gives them in different places.
Tested on: Acinetobacter baumannii ATCC17978
Experiment: Antimicrobial susceptibility testing: 90% growth inhibitory concentration (IC90) determination, Iso-Sensitest broth
Type: cell-based
How it was run: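 A. baumannii ATCC17978 grown in Iso-Sensitest broth across 10 compound concentrations at 35±2 °C.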

[1] = Acinetobacter baumannii, ATCC17978, 16 h, read-out: ATCC17978 IC90, 90% growth inhibitory concentration, Acinetobacter baumannii ATCC17978, Iso-Sensitest broth, OD 600 nm over 16 h
[2] = 90% growth inhibitory concentration, Acinetobacter baumannii ATCC17978, Iso-Sensitest broth, OD 600 nm over 16 h, read-out: ATCC17978 IC90

SMILES	IC90 [2]	IC90 [1]
COc1ccc(-c2cnc3c(Nc4ccc(C(=O)N5CC6(CCN6)C5)c(C)c4)nccn23)cc1F [Example 421, 1,6-diazaspiro[3.3]heptan-6-yl-[4-[[3-(3-fluoro-4-methoxyphenyl)imidazo[1,2-a]pyrazin-8-yl]amino]-2-methylphenyl]methanone; 2,2,2-trifluoroacetic acid]	–	1100 nM
CCN1CCN(C2CCN(C(=O)c3ccc(Nc4nccn5c(-c6ccc(OC(F)F)cc6)cnc45)cc3C)CC2)CC1 [Example 367, [4-[[3-[4-(difluoromethoxy)phenyl]imi-dazo[1,2-a]pyrazin-8-yl]amino]-2-methylphenyl]-[4-(4-ethylpiperazin-1-yl)piperidin-1-yl]methanone]	–	690 nM
Cc1cc(Nc2nccn3c(-c4ccc(OC(F)F)cc4)cnc23)ccc1C(=O)N1CCC(C(=O)NCC2(F)CNC2)CC1 [Example 310, 1-[4-[[3-[4-(difluoromethoxy)phenyl]imi-dazo[1,2-a]pyrazin-8-yl]amino]-2-methylbenzoyl]-N-[(3-fluoroazetidin-3-yl)methyl]piperidine-4-carboxamide; hydrochloride]	–	140 nM
Cc1cc(Nc2nccn3c(-c4ccc(OC(F)F)cc4)cnc23)ccc1C(=O)N1CCN(C(=O)CN(C)CC(=O)O)CC1 [Example 281, 2-[[2-[4-[4-[[3-[4-(difluoromethoxy)phenyl]imi-dazo[1,2-a]pyrazin-8-yl]amino]-2-methylbenzoyl]piperazin-1-yl]-2-oxoethyl]-methylamino]acetic acid]	–	4700 nM
Cc1cc(Nc2nccn3c(-c4ccc(OC(F)F)cc4)cnc23)ccc1C(=O)N1CCN(C(=O)[C@H]2CNCCO2)CC1 [Example 315, [4-[[3-[4-(difluoromethoxy)phenyl]imi-dazo[1,2-a]pyrazin-8-yl]amino]-2-methylphenyl]-[4-[(2R)-morpholine-2-carbonyl]piperazin-1-yl]methanone; hydrochloride]	–	240 nM
Cc1cc(Nc2nccn3c(-c4ccc(OC(F)F)cc4)cnc23)ccc1C(=O)N1CCC(C(=O)NCC(O)CN)CC1 (centres unmarked) [Example 299, N-(3-amino-2-hydroxypropyl)-1-[4-[[3-[4-(difluoromethoxy)phenyl]imi-dazo[1,2-a]pyrazin-8-yl]amino]-2-methylbenzoyl]piperidine-4-carboxamide; hydrochloride]	–	200 nM
Cc1cc(Nc2nccn3c(-c4ccc(OC(F)F)cc4)cnc23)ccc1C(=O)N1CCN(C(=O)CC(C)(C)N)CC1 [Example 329, 3-amino-1-[4-[4-[[3-[4-(difluoromethoxy)phenyl]imi-dazo[1.2-a]pyrazin-8-yl]amino]-2-methylbenzoyl]piperazin-1-yl]-3-methylbutan-1-one; hydrochloride]	–	400 nM
CN1CCN(C(=O)c2ccc(Nc3nccn4c(-c5ccc(OC(F)F)cc5)cnc34)cc2C(F)(F)F)CC1 [Example 385, [4-[[3-[4-(difluoromethoxy)phenyl]imi-dazo[1,2-a]pyrazin-8-yl]amino]-2-(trifluoromethyl)phenyl]-(4-methylpiperazin-1-yl)methanone]	–	7400 nM
Cc1cc(Nc2nccn3c(-c4ccc(OC(F)F)cc4)cnc23)ccc1C(=O)N1CCN(C(=O)C2(F)CCNCC2)CC1 [Example 324, [4-[[3-[4-(difluoromethoxy)phenyl]imi-dazo[1,2-a]pyrazin-8-yl]amino]-2-methylphenyl]-[4-(4-fluoropiperidine-4-carbonyl)piperazin-1-yl]methanone]	–	330 nM
N#CCOc1ccc(-c2cnc3c(Nc4ccc(C(=O)N5CCC(C(=O)OCC6CNCCN6)CC5)c(Cl)c4)nccn23)c(Cl)c1F (centres unmarked) [Example 96, piperazin-2-ylmethyl 1-[2-chloro-4-[[3-[2-chloro-4-(cyanomethoxy)-3-fluoro-phenyl]imidazo[1,2-a]pyrazin-8-yl]amino]benzoyl]piperidine-4-carboxylate trifluoroacetate]	290 nM	–

Now from value to molecule, other results behind:

IC90 [2]	SMILES	IC90 [1]
200 nM	COc1ccc(-c2cnc3c(Nc4ccc(C(=O)N5CCN(C(=O)N[C@H](C)CN)CC5)c(C)c4)nccn23)c(Cl)c1F [Example 166, formate]	–
110 nM	CNCC(=O)N1CCN(C(=O)c2ccc(Nc3nccn4c(-c5ccc(OC)c(F)c5F)cnc34)cc2C)CC1 [Example 308, 1-[4-[4-[[3-(2,3-difluoro-4-methoxyphenyl)imidazo[1,2-a]pyrazin-8-yl]amino]-2-methylbenzoyl]piperazin-1-yl]-2-(methylamino)ethanone; hy-drochloride]	–
430 nM	COc1ccc(-c2cnc3c(Nc4ccc(C(=O)N5CCC(C(=O)NCC(O)CO)CC5)c(C)c4)nccn23)cc1F (centres unmarked) [Example 402, N-(2,3-dihydroxypropyl)-1-[4-[[3-(3-fluoro-4-methoxyphenyl)imidazo[1,2-a]pyrazin-8-yl]amino]-2-methylbenzoyl]piperidine-4-carboxamide]	–
210 nM	Cc1cc(Nc2nccn3c(-c4ccc(OC(C)C#N)c(F)c4F)cnc23)ccc1C(=O)N1CCN(CCN(C)C)CC1 (centres unmarked) [Example 238, 2-[4-[8-[4-[4-[2-(dimethylamino)ethyl]piperazine-1-carbonyl]-3-methyl-anilino]imidazo[1,2-a]pyrazin-3-yl]-2,3-difluoro-phenoxy]propanenitrile; 2,2,2-trifluoroacetic acid]	–
160 nM	COc1ccc(-c2cnc3c(Nc4ccc(C(=O)N5CCN(CCN(C)C)CC5)c(C)c4)nccn23)c(F)c1F [Example 27]	–
190 nM	COc1ccc(-c2cnc3c(Nc4ccc(C(=O)N5CCN(C(=O)[C@@H]6CCNC[C@H]6O)CC5)c(C)c4)nccn23)c(Cl)c1F [Example 216, [4-[[3-(2-chloro-3-fluoro-4-methoxy-phenyl)imidazo[1,2-a]pyrazin-8-yl]amino]-2-methyl-phenyl]-[4-[(3S,4R)-3-hydroxypiperidine-4-carbonyl]piperazin-1-yl]methanone formate]	–
230 nM	Cc1cc(Nc2nccn3c(-c4ccc(OCC#N)c(F)c4F)cnc23)ccc1C(=O)N1CCN(C(=O)[C@@H]2CCNC[C@H]2O)CC1 (racemic) [Example 472, 2-[2,3-difluoro-4-[8-[3-methyl-4-[4-[rac-(3R,4S)-3-hydroxypiperidine-4-carbonyl]piperazine-1-carbonyl]anilino]imidazo[1,2-a]pyrazin-3-yl]phenoxy]acetonitrile; for-mic acid]	–
240 nM	Cc1cc(Nc2nccn3c(-c4ccc(OCC#CCO)c(F)c4)cnc23)ccc1C(=O)N1CCC(CN)CC1 [Example 387, [4-(aminomethyl)piperidin-1-yl]-[4-[[3-[3-fluoro-4-(4-hydroxybut-2-ynoxy)phenyl]imidazo[1,2-a]pyrazin-8-yl]amino]-2-methylphenyl]methanone; for-mic acid]	–
110 nM	Cc1cc(Nc2nccn3c(-c4ccc(OC(F)F)cc4)cnc23)ccc1C(=O)N1CCN(C(=N)N)CC1 [Example 69]	–
180 nM	CCc1cc(Nc2nccn3c(-c4ccc(OCC#N)c(F)c4F)cnc23)ccc1C(=O)N1CCN(C(=O)[C@H]2CCNC[C@H]2O)CC1 (racemic) [Example 199, 2-[4-[8-[3-ethyl-4-[4-[rac-(3S,4S)-3-hydroxypiperidine-4-carbonyl]piperazine-1-carbonyl]anilino]imidazo[1,2-a]pyrazin-3-yl]-2,3-difluoro-phenoxy]acetonitrile formate]	–
